Measurements published in US11826373B2, “Methods for treatment of diseases” (Galera Labs, LLC, priority 2011, dated 2023).
Read-outs that look alike come from different tables or passages of the source.

Columns and labels:
[1] = Catalytic rate constant for the dismutation of superoxide; assay type: biochemical; details: pH = 7.4
[2] = Human Phase 1 pharmacokinetics of GC4419; details: both sexes, in vivo
Method: A human clinical trial entitled, “A Double-Blind, Placebo-Controlled, Single Rising Dose Study to Evaluate the Safety and Tolerability and Determine the Pharmacokinetics of M40419 Administered as a I5-Minute Intravenous Infusion in Healthy Subjects,” was conducted on 54 subjects. This was a single center, randomized, placebo-controlled, sequential panel, single dose safety, tolerability, and pharmacokinetic study of GC4419 administered as a 75-mL IV infusion over 15 minutes in escalating doses of 10 mg, 15 mg, 22 mg, 33 mg, 50 mg, 75 mg, and 112 mg. The study consisted of two phases: the first phase was a dose escalation with six subjects (four active and two placebo) in each cohort to determine a Maximum Tolerated Dose (MTD); the second phase was a repeat of the MTD dose in 12 subjects (eight active drug and four placebo) to confirm the MTD or safety of highest dose tested. The study population was comprised of 54 healthy male and female subjects (36 males, 18 females) between the ages of 18 and 50 years considered eligible on the basis of inclusion and exclusion criteria. There were four active and two placebo subjects for each dose level in the escalating dose phase of the study, and eight active and four placebo subjects for the confirmation of MTD phase.
As part of the conduct of the Phase 1a clinical studies for GC4403 and GC4419 described in the Examples herein, plasma samples were collected for measuring the concentration of parent compounds (GC4403 and GC4419) after intravenous infusion. Table 3 illustrates the pharmacokinetic parameter, area under the curve (AUC), representing the total exposure of the subject to the drugs over time.

[3] = Kinetic stability (dissociation of Mn(II) from ligand); assay type: physicochemical; details: second-order rate constant for dissociation of Mn(II) from the ligand, in water
Solubility (Table 1) = assay type: physicochemical
TNF-α = assay: Plasma TNF-α in the collagen induced arthritis model; assay type: in vivo, Male Lewis rats
Method: Male Lewis rats (160-180 g) were used for this study. Collagen induced arthritis (CIA) was induced as follows: Bovine type II collagen (CII; Sigma) was dissolved in 0.1 M acetic acid at 2 mg/mL by stirring overnight at 4 C. Rats were immunized with an emulsion of 2 mg/mL CII in incomplete Freund's adjuvant (IFA; Sigma). The emulsion was prepared by homogenizing one part CII into one part IFA at 4 C. On day 1, rats were injected intradermally at the base of the tail with 100 μL of the emulsion. On day 21, a second injection of CII in IFA was administered at the base of the tail. GC4403 and GC4419 were prepared fresh, dissolved in 26 mM sodium bicarbonate buffered saline (Vehicle). All drugs were given by intraperitoneal injection at 1 mL/kg. Animals were randomly divided into groups (n=10 per group). GC4403 and GC4419 were administered once daily at 2, 5 and 10 mg/kg from days 25 through 35.
TNF-α levels were measured from plasma on day 35. The assay was conducted using a colorimetric ELISA kit (Calbiochem-Novabiochem) having a detection limit of 5 pg/mL. Values were expressed as mean±standard error of the mean of 10 observations. Data sets were examined by one-way ANOVA followed by a Bonferroni post-hoc test for multiple comparisons. A p-value of less than 0.05 was considered significant.

HEK-293 cells = assay: Anti-proliferative activity in vitro; assay type: cell-based; details: 72 hour incubation, LDH assay
Method: Materials and Methods: HEK-293 (CRL-1573) cells were obtained from ATCC and cultured according to ATCC instructions. Complete growth medium consisted of RPMI 1640 supplemented to 10% with fetal bovine serum (FBS). All cell incubations were at 37° C. in 95% air: 5% CO2. Two days before the start of a proliferation experiment, 10^3 HEK-293 cells in exponential growth phase were plated into each well of a 96-well plate. To synchronize cell division, the cells were maintained in complete growth medium for 24 hours at which time the cell monolayers were rinsed once with growth medium without FBS and then incubated overnight in media without FBS. The next morning GC4419 or GC4403 in complete growth medium or complete growth medium alone was added. The plates were incubated for 72 hour, after which time cell numbers were determined using an LDH assay kit. “Cell number” on FIG. 3 represents absorbance at 490 nm.

[4] = 26 mM bicarbonate buffered saline, aqueous buffer, at 25° C., pH 8.3, read-out: Solubility in 26 mM bicarbonate buffered saline
[5] = 2 mg/kg ip once daily days 25 through 35, measured day 35
[6] = 5 mg/kg ip once daily days 25 through 35, measured day 35
[7] = 10 mg/kg ip once daily days 25 through 35, measured day 35

SMILES	Catalytic rate constant for the dismutation for superoxide (kcat) [1]	AUC(0-inf) ([2]; 10 mg IV over 15 minutes) [ng·h/mL]	AUC(0-inf) ([2]; 15 mg IV over 15 minutes) [ng·h/mL]	AUC(0-inf) ([2]; 22 mg IV over 15 minutes) [ng·h/mL]	AUC(0-inf) ([2]; 33 mg IV over 15 minutes) [ng·h/mL]	AUC(0-inf) ([2]; 50 mg IV over 15 minutes) [ng·h/mL]	AUC(0-inf) ([2]; 75 mg IV over 15 minutes) [ng·h/mL]	AUC(0-inf) ([2]; 112 mg IV over 15 minutes) [ng·h/mL]	Kinetic Stability (kdiss) [3]	solubility (Solubility (Table 1); [4]) [mg/mL]	solubility (Solubility (Table 1); distilled water, water) [mg/mL]	plasma TNF-α production (TNF-α; [5])	plasma TNF-α production (TNF-α; [6])	plasma TNF-α production (TNF-α; [7])	proliferation of HEK-293 cells (HEK-293 cells)
[Cl][Mn-5]1234([Cl])[n+]5c6cccc5C[NH+]1[C@H]1CCCC[C@@H]1[NH+]2CC[NH+]3[C@H]1CCCC[C@@H]1[NH+]4C6 (some centres unmarked) [GC4419]	kcat = 1.2 × 10^+7 M^−1 sec^−1	741	1300	2000	3190	4560	6490	10400	kdiss = 0.135 M^−1 s^−1	20	30	did not significantly reduce	significantly reduced	significantly reduced	equivalent dose-dependent decrease
[Cl][Mn-5]1234([Cl])[n+]5c6cccc5C[NH+]1[C@@H]1CCCC[C@H]1[NH+]2CC[NH+]3[C@@H]1CCCC[C@H]1[NH+]4C6 (some centres unmarked) [GC4403]	kcat = 1.2 × 10^+7 M^−1 sec^−1								kdiss = 0.135 M^−1 s^−1	20	30	did not significantly reduce	significantly reduced	significantly reduced	equivalent dose-dependent decrease
